Experimental data: patent US6218384A, “3-Oxo-pyrido(1,2-a)benzimidazole-4-carboxyl and 4-oxo-azepino(1,2-a)benzimidazole-5-carboxyl derivatives useful in treating central nervous system disorders” (Ortho-McNeil Pharmaceutical, Inc., priority 1997, dated 2001)

Columns and labels:
[1] = Horizontal Screen Test for Motor Coordination; format: in vivo, male CD1 mice; settings: Table 1, mice, parenteral, >300 = active dose not determined; for ED50: Mus musculus, read-out: Horiz. Screen ED50
Method: Some of the compounds of the invention were tested for their ability to act as general CNS agents and particularity as skeletal muscle relaxants and hypnotics/sedatives (Coughenour, L. L. et al. Pharm. Biochem. Behav. 1977, 6, 351). Male CD1 mice, fasted for at least 16 hours but allowed access to water except during the period of observation, were placed on a horizontally-held screen (mesh size 1/4", wire diameter approximately 1.0 mm). The screen was inverted and mice which successfully climb to the top side of the screen within one minute were selected for testing. Selected mice were weighed and divided into equal groups. Test compounds or vehicle were administered to those mice parenterally. At a pre-determined interval (or intervals) after administration, the animals were tested for their ability to climb to the top side of the inverted screen (pass the test). Activity is reported as the percent reduction in the number of animals that pass the test in each treatment group relative to the corresponding vehicle-treated group. Percent Reduction=100×([Percent Pass in Vehicle Group]-[Percent Pass in Test Group]/Percent Pass in Vehicle Group). Test compounds which produce a 50% or greater reduction in the number passing the test were considered active. ED50 values of the active compounds were calculated by the method of probits (Finney, D. J. 1971. Probit Analysis. London: Cambridge University Press) and are listed in Tables 1 to 5.

[2] = Suppression of anxiety (punished licking, conflict test) in the adult male rat; format: in vivo, male rats; settings: Table 1, ip, minimum effective dose, >10 = active dose not determined; for minimal effective dose: read-out: Conflict (ip) MED
Procedure, shortened: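 Rats were deprived of water for 48 h and food for 24 h, with unpunished training the day before. Testing began at expected peak drug activity: 3-min session, every 20th lick punished by a 0.2-s shock.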

[3] = Suppression of metrazol-induced convulsions; format: in vivo, male CD1 mice; settings: Table 1, ip, mice, clonic convulsions after sc CD90 metrazol, >30 = active dose not determined; for ED50: Mus musculus, 0.5 h, read-out: Metrazol (ip) ED50
[4] = target: benzodiazepine site of the GABA-A receptor; experiment: Benzodiazepine Receptor Binding Assay (inhibition of 3H-flunitrazepam binding); settings: Table 1; ca. 3 nM 3H-flunitrazepam, 25° C., 10-20 min; >10,000 = not active
[5] = Screens in which the excluded compounds were tested (not specified); settings: compounds excluded from formula I
[6] = Horizontal Screen Test for Determining Benzodiazepine Antagonism; format: in vivo, male CD1 mice; settings: mice
Method: Some of the compounds of the invention were tested for their ability to antagonize the locomotor discoordinating property of chlordiazepoxide. Male CD1 mice, fasted for at least 16 hours but allowed access to water except during the period of observation, were placed on a horizontally-held screen (mesh size 1/4", wire diameter approximately 1.0 mm). The screen was inverted and mice which successfully climb to the top side of the screen within one minute were selected for testing. Selected mice were weighed and divided into equal groups. Test compounds or vehicle were administered to those mice parenterally at the same time as chlordrazepoxide (28 mg/kg, sc). At a pre-determined interval (or intervals) after administration, the animals were tested for their ability to climb to the top side of the inverted screen (pass the test). Activity is reported as the percent antagonism of the number of animals that fail the test in each treatment group relative to the corresponding chlordiazepoxide-treated group. Percent Antagonism =100×[(Percent Fail in Chlordiazepoxide Group)-(Percent Fail in Test Group)/Percent Fail in Chlordiazepoxide Group]. […] The percent antagonism values for the compounds of the present invention that were tested are as follows: CP 113=0, CP 53=0, CP 59=0,CP 102=0,[…],CP 7=17,CP 8=17,CP 9=30,CP 10=30, CP 11=92, CP 12=92, CP 13=100. Compounds having values above 0 were considered active as agents for treating drug overdoses, particularly overdoses of benzodiazepine.

| Molecule | ED50 [1] | minimal effective dose [2] | ED50 [3] | IC50 [4] | other results |
| --- | --- | --- | --- | --- | --- |
| O=C1CCN2C(=C1C(=O)Nc1cccc(F)c1)Nc1ccccc12 [compound 95] | > 10 mg/kg | > 10 mg/kg | > 10 mg/kg | 0.16 µM | – |
| O=C(Nc1ccccc1C(F)(F)F)C1=C(O)CCn2c1nc1ccccc12 [1,2-dihydro-3-hydroxy-N-(2-trifluoromethylphenyl)-pyrido(1,2-a)benzimidazole-4-carboxamide] | – | – | – | – | biological activity in the screens in which they have been tested [5]: none of these compounds has exhibited biological activity |
| CCCCc1ccc(NC(=O)C2=C3Nc4ccccc4N3CCC2=O)cc1 [compound 17] | 300 mg/kg | – | > 10 mg/kg | > 10 µM | – |
| O=C1CCN2C(=C1C(=O)Nc1ccncc1F)Nc1ccccc12 [compound 97] | > 10 mg/kg | 10 mg/kg | 1 mg/kg | 0.053 µM | – |
| O=C(Nc1ccncc1)C1=C(O)CCn2c1nc1ccc(Cl)cc12 [8-chloro-1,2-dihydro-3-hydroxy-N-(4-pyridyl)-pyrido(1,2-a)benzimidazole-4-carboxamide] | – | – | – | – | biological activity in the screens in which they have been tested [5]: none of these compounds has exhibited biological activity |
| O=C1CCN2C(=C1C(=O)NC1CCNCC1)Nc1ccccc12 [compound 58] | 100 mg/kg | > 10 mg/kg | > 10 mg/kg | > 10 µM | – |
| CN(C)c1ccc(NC(=O)C2=C(O)CCn3c2nc2ccc(Cl)cc23)cc1 [N-(4-(dimethylamino)phenyl)-8-chloro-1,2-dihydro-3-hydroxypyrido(1,2-a)benzimidazole-4-carboxamide] | – | – | – | – | biological activity in the screens in which they have been tested [5]: none of these compounds has exhibited biological activity |
| Cc1cccc(C)c1NC(=O)C1=C2Nc3ccccc3N2CCC1=O [compound 19] | 300 mg/kg | > 10 mg/kg | > 30 mg/kg | 7.7 µM | – |
| C[n+]1ccc(NC(=O)C2=C3Nc4ccccc4N3CCC2=O)cc1 [compound 56] | 100 mg/kg | > 10 mg/kg | > 10 mg/kg | 6.3 µM | – |
| O=C1CCN2C(=C1C(=O)Nn1cnnc1)Nc1ccccc12 [compound 42] | 300 mg/kg | > 10 mg/kg | > 10 mg/kg | 2.7 µM | – |
| N-(2-Fluorophenyl)-3-hydroxypyrido(1,2-a)benzimidazol-4-carboxamide [CP 139] | – | – | – | > 10 µM | Horiz. Screen ED50 [1]: 300 mg/kg; Conflict (ip) MED [2]: > 10 mg/kg; Metrazol (ip) ED50 ([3]; 30 min): > 300 mg/kg |
| CN(C)c1cc(F)ccc1NC(=O)C1=C(O)CCn2c1nc1ccccc12 [1,2-dihydro-N-(2-dimethylamino-4-fluorophenyl)-3-hydroxypyrido(1,2-a)benzimidazole-4-carboxamide] | – | – | – | – | biological activity in the screens in which they have been tested [5]: none of these compounds has exhibited biological activity |
| COc1ccc(NC(=O)C2=C(O)CCn3c2nc2ccccc23)cc1OC [CP 8, 1,2-Dihydro-N-(3,4-dimethoxyphenyl)-3-hydroxy-pyrido(1,2-a)benzimidazole-4-carboxamide] | – | – | – | – | percent antagonism ([6]; given parenterally with chlordiazepoxide (28 mg/kg, sc), values above 0 considered active): 17% |
| NC(=O)c1ccc(NC(=O)C2=C3Nc4ccccc4N3CCC2=O)cc1 [compound 90] | > 10 mg/kg | > 10 mg/kg | > 10 mg/kg | 0.11 µM | – |
| CNC1=Nc2ccc(Cl)cc2C(c2ccccc2)=[N+]([O-])C1 [chlordiazepoxide, reference compound] | – | – | – | – | impairment of the ability to pass the inverted screen test ([6]; chlordiazepoxide 28 mg/kg, sc): impairs the ability of all animals to pass this test |
